Laboratory results published in the NIST ThermoML archive (doi:10.1021/acs.jced.7b00604).

Columns and labels:
[1] = 100 kPa, Liquid; for speed of sound: Frequency=3 MHz, Sing-around technique in a fixed-path interferometer; for mass density: Vibrating tube method
[2] = molar heat capacity at constant pressure; details: 100 kPa, Liquid, Extra sensitive DSC
[3] = xn = mol fraction of the nth substance listed; details: 100 kPa, Liquid, x1 = 1; for speed of sound: Frequency=3 MHz, Sing-around technique in a fixed-path interferometer; for mass density: Vibrating tube method

CCCC[n+]1ccn(C)c1.O=S(=O)([N-]S(=O)(=O)C(F)(F)F)C(F)(F)F
Details	mass density, [1] [kg/m3]	molar heat capacity at constant pressure, [2] [J/K/mol]	speed of sound, [1] [m/s]
298.15 K	1437.12	567.22	1227.8
303.15 K	1432.51	569.85	1216.7
308.15 K	1427.43	572.64	1205.8
313.15 K	1422.86	575.47	1194.9
318.15 K	1417.91	578.38	1184.2
323.15 K	1413.58	581.52	1173.6

CCCC[n+]1ccn(C)c1.O=S(=O)([N-]S(=O)(=O)C(F)(F)F)C(F)(F)F + COCCO
[3]
Details	mass density [kg/m3]	speed of sound [m/s]
298.15 K	1437.12	1227.8
303.15 K	1432.51	1216.7
308.15 K	1427.43	1205.8
313.15 K	1422.86	1194.9
318.15 K	1417.91	1184.2
323.15 K	1413.58	1173.6

COCCO [2-methoxyethan-1-ol]
Details	mass density, [1] [kg/m3]	molar heat capacity at constant pressure, [2] [J/K/mol]	speed of sound, [1] [m/s]
298.15 K	960.31	175.32	1341.8
303.15 K	955.71	176.9	1324.1
308.15 K	951.08	178.41	1307.3
313.15 K	946.41	179.96	1292
318.15 K	941.72	181.45	1274.2
323.15 K	936.99	183.02	1259.4
